Target: T1, Renin (Homo sapiens, UniProt P00797)
T1 sequence (P00797 whole entry): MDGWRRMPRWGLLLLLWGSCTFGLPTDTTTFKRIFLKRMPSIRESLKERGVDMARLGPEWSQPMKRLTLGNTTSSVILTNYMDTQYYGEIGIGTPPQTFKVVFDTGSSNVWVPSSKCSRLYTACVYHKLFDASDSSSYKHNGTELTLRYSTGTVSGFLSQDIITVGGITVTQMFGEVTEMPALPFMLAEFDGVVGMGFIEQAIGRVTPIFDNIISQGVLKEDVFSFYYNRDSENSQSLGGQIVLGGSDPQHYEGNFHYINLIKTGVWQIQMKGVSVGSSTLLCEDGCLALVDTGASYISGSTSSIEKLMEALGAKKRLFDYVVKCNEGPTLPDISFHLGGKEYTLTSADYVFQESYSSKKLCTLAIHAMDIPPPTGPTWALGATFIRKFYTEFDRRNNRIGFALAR
Experiment: Binding affinity towards human renin was determined

Row | Compound | IC50 [µM]
1 | CCCCNC(=O)[C@H](C)C[C@H](O)[C@@H]1C[C@@H](C)[C@@H](c2ccccc2)N1C(=O)OCc1ccccc1 | > 100
2 | CCCCNC(=O)[C@H](C)C[C@H](O)[C@H](C[C@@H](C)Cc1ccccc1)NC(=O)OC(C)(C)C | > 100
3 | CCCCNC(=O)[C@H](C)C[C@H](O)C1C[C@@H](C)[C@@H](c2ccccc2)N1C(=O)OC(C)(C)C (some centres undefined) | > 100
4 | CCCCNC(=O)[C@H](C)C[C@H](O)[C@@H](N)C[C@@H](C)Cc1ccccc1 | 37
